Measured values taken from patent US12043625B2, “Pyridine derivatives with c-linked cyclic substituents as cGAS inhibitors” (BOEHRINGER INGELHEIM INTERNATIONAL GMBH, priority 2021, dated 2024).

Legend:
[1] = biological target: Human cGAS (Homo sapiens (Human), UniProt Q8N884); assay: Human cGAS enzyme assay (hcGAS IC50, in vitro), cGAMP formation by RapidFire MS; assay type: biochemical; details: 45 bp dsDNA, GTP/ATP;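 further: compounds preincubated 60 min, then GTP and ATP (30 µM each) added for 90 min at room temperature, cGAMP read relative to cyclic-di-GMP internal standard, no-enzyme/DNA wells as 0%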
Chain of Human cGAS (Q8N884 whole entry): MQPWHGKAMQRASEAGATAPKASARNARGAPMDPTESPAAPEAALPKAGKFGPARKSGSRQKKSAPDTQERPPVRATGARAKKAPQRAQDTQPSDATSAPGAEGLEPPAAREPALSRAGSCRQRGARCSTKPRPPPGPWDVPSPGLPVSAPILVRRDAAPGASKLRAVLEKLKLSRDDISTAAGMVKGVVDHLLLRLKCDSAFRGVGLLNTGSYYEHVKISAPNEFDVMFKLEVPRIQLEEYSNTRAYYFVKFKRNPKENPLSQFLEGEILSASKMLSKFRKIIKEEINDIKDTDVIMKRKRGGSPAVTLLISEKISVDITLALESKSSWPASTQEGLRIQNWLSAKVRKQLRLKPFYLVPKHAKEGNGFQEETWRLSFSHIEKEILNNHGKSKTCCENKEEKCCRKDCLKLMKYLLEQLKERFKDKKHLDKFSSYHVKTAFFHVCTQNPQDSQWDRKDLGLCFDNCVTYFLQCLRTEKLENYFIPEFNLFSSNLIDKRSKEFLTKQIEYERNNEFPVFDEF

[2] = test system: IFN induction in virus-stimulated THP1 cells; assay: Human cGAS cell assay, baculovirus-stimulated THP1-Dual cells, Lucia luciferase reporter (THP1(vir) IC50); assay type: cell-based; details: for IC50: Homo sapiens, THP-1, baculovirus-stimulated THP1-Dual cells, 18 h; for Ratio THP(cGAMP) IC50/THP(vir) IC50: selectivity for cGAS inhibition;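 on all read-outs here: IRF-dependent luminescence, 8 concentrations up to 10 µM in 1% DMSO, 0% = unstimulated cells, 100% = DMSO plus virus, counter assay stimulated with cGAMP downstream of cGAS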
Excerpt: THP1-Dual™ cells (InvivoGen #thpd-nfis) expressing IRF dependent Lucia luciferase reporter were used as basis for both assays. For the detection of cellular cGAS activity cells were stimulated by a baculovirus (pFastbac-1, Invitrogen, no coding insert) infection that delivers the cGAS enzyme stimulating double-stranded DNA (measurement of THP1(vir) IC50).
(§1) For the counter assay, cells were stimulated by cGAMP (SigmaAldrich #SML1232) to activate the identical pathway independent and directly downstream of cGAS (measurement of THP1(cAMP) IC50). Pathway activity was monitored by measuring the Lucia luciferase activity induced by either DNA stimulated cGAS enzyme activity (measurement of THP1^(vir) IC50) or by cGAMP directly (measurement of THP1(cAMP) IC50, counter assay).
Typically, 8 concentrations were used with the highest concentration at 10 μM in the final assay volume followed by ˜1:5 dilution steps. DMSO concentration was set to 1% in the final assay volume. The 384 well assay plate contained 21 test compounds (column 1-22), and DMSO in column 23 and 24.
The baculovirus solution was then added 1:200 (may have varied according to virus batch) to the cells (measurement of THP1(vir) IC50).
(§2) 30 μL of the cell/virus-mix were added to each well of the compound plate from column 1-23 via MultiDrop Combi dispenser (5000 cells/well). In column 24, 30 μl/5000 cells/well without virus were added as a low control.
(§3) The plates were then incubated for 18 h at 37° C. in a humidified incubator.
(§4) Following that, 15 μL of QuantiLuc detection reagent (InvivoGen #rep-qlcg5) were added to each well using a MultiDrop Combi. Measurement was done immediately after the addition using an EnVision reader (US-luminescence read-mode).
Data Evaluation and Calculation:
(§5) For data evaluation and calculation, the measurement of the low control was set as 0% control and the measurement of the high control was set as 100% control. The IC50 values were calculated using the standard 4 parameter logistic regression formula. Calculation: [y=(a−d)/(1+(x/c)^b)+d], a=low value, d=high value; x=conc M; c=1C50 M; b=slope

[3] = test system: IFN induction in cGAMP-stimulated THP1 cells; assay: cGAMP stimulated counter cell assay, THP1-Dual cells, Lucia luciferase reporter (THP1(cGAMP) IC50); assay type: cell-based; details: Homo sapiens, THP-1, THP1-Dual cells stimulated with 10 μM cGAMP;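 further: IRF-driven Lucia luciferase luminescence after 18 h at 37° C, compound series topping at 10 µM with 1% DMSO, unstimulated wells as 0% and DMSO wells as 100%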
Excerpt: 6.2 Method: Human cGAS Cell Assay and cGAMP Stimulated Counter Cell Assay (THP1(vir) IC50 and THP1(cGAMP) IC50)
THP1-Dual™ cells (InvivoGen #thpd-nfis) expressing IRF dependent Lucia luciferase reporter were used as basis for both assays.
as §1
Compounds were delivered in 10 mM DMSO solution, serially diluted and transferred to the 384 well assay plate (Greiner #781201) using an Echo acoustic dispenser. Typically, 8 concentrations were used with the highest concentration at 10 μM in the final assay volume followed by ˜1:5 dilution steps. DMSO concentration was set to 1% in the final assay volume. The 384 well assay plate contained 21 test compounds (column 1-22), and DMSO in column 23 and 24.
as §2, §3, §4
Data Evaluation and Calculation:
as §5

[4] = test system: IFN induction in dsDNA-stimulated human whole blood; assay: Human whole blood assay, dsDNA transfection, IFNα2a production (hWB IC50); assay type: cell-based;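 further: cGAS pathway activity, IFNα2a in plasma by MSD immunoassay after 22 h at 37 °C, 8 concentrations up to 10 µM in 0.1% DMSO, DMSO controls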
Description: For the detection of cellular cGAS activity human whole blood was stimulated by transfection with double stranded DNA. Pathway activity was monitored by measuring the IFNα2α production.
Typically, 8 concentrations were used with the highest concentration at 10 μM in the final assay volume followed by ˜1:5 dilution steps. DMSO concentration was set to 0.1% in the final assay volume. The 96-well assay plate contained 10 test compounds, and DMSO in control wells.
Whole blood was kept at room temperature for a maximum of 3 hours after collection until use in the assay.
160 μl of the whole blood samples was transferred to each well of the 96-well assay plates filled with compound/OptiMEM. All assay plates were prepared as duplicates with blood from different donors. Blood plates were kept at room temperature for 60 minutes and continuous shaking with 450 rpm, covered with the lid, but not sealed.
20 μl OptiMEM and 9.6:1 Fugene was added to all low control wells.
After covering assay plates with aera seals and the lid, blood plates were kept at room temperature for 30 minutes and continuous shaking with 450 rpm, followed by an overnight incubation of 22 h at 37° C. in the incubator, without shaking.
U-Plex MSD GOLD 96-well Small Spot Strepavidin SECTOR Plates (Meso Scale Diagnostics #L45SA-5) were coated with 25 μl diluted capture antibody. Coated plates were incubated for 60 min at room temperature under continuous shaking at 700 rpm. MSD IFNα-2a plates were washed three times with 150 μl wash buffer (1×HBSS, 0.05% Tween).
After blocking the plates with 100 μl block solution/well (1×HBSS with 0.2% Tween, 2% BSA) for 60 min at room temperature and continuous shaking at 700 rpm, plates were emptied as dry as possible by dumping just before continuing with the human plasma.
Whole Blood assay plates were centrifuged at 1600 rpm for 10 minutes. 25 μl of supernatant was transferred with a pipetting robot from each whole blood plate to the corresponding IFNα-2a plate.
Plates were sealed with microplate seals and kept at room temperature again under continuous shaking at 700 rpm for two hours.
Next MSD IFNα-2a plates were washed three times with 150 μl wash buffer (1×HBSS, 0.05% Tween), before adding 25 μl MSD SULFO-TAG IFNα-2a Antibody solution (1:100 diluted in Diluent 3 (Meso Scale Diagnostics #R50AP-2) to each well of the plates.
Afterwards plates were sealed with microplate seals and kept at room temperature again under continuous shaking at 700 rpm for two hours. Finally, MSD IFNα-2α plates were washed three times with 150 μl wash buffer (1×HBSS, 0.05% Tween). 150 μl 2× Read buffer was added to each well and plates were immediately measured with the MSD Sector S600 Reader using the vendor barcode.
For data evaluation and calculation, % control calculation of each well was based on the mean of high (DNA stimulated control) and mean of low (unstimulated control) controls by using the following formula: [counts(sample)−counts(low))/(counts(high)−counts(low))]*100
The IC50 values were calculated using the standard 4 parameter logistic regression formula. Calculation: [y=(a−d)/(1+(x/c)^b)+d], a=low value, d=high value; x=conc M; c=1C50 M; b=slope

Structure (SMILES)	IC50 [1] [nM]	IC50 [2] [nM]	Ratio THP(cGAMP) IC50/THP(vir) IC50 [2]	IC50 [3] [nM]	IC50 [4] [nM]
O=C(O)[C@@H]1C[C@H](Oc2ncc(Cl)cc2[C@]2(F)CCS(=O)(=O)C3(CCC3)C2)CN1c1nc(C(F)F)nc2c1oc1ccccc12 [Example 1.21]	5	126	74	9280	76
C#Cc1cnc(O[C@H]2C[C@@H](C(=O)OC)N(c3nc(C(F)(F)F)nc4c3oc3ccccc34)C2)c([C@@]2(F)CCS(=O)(=O)C[C@@H]2C)c1 [Example P01]	19100	11	–	> 16600	67
C#Cc1cnc(O[C@H]2C[C@@H](C(=O)O)N(c3nc(C(F)(F)F)nc4c3oc3ccccc34)C2)c([C@]2(F)CCOC[C@@H]2C)c1 [Example 1.04]	4	378	66	24900	648
CC(=O)N1CC[C@](F)(c2cc(-c3cccc(N(C)C)c3)cnc2O[C@H]2C[C@@H](C(=O)O)N(c3nc(C(F)F)nc4c3oc3ccccc34)C2)[C@@H](C)C1 [Example 3.04]	29	16	650	10500	46
Cc1nc(N2C[C@@H](CC(=O)Nc3ccncc3)C[C@H]2C(=O)O)c2oc3ccccc3c2n1 [Example 28, reference compound]	–	> 32000	–	> 17000	> 9990
CC(C)(C(=O)N[C@H]1C[C@@H](C(=O)O)N(c2nc(C(F)(F)F)nc3c2oc2ccccc23)C1)c1cn[nH]c1 [Example 58, reference compound]	–	21000	–	23000	> 9980
O=C(O)[C@@H]1C[C@H](Oc2ncc(Cl)cc2[C@@]2(F)CCS(=O)(=O)C3(CC3)C2)CN1c1nc(C(F)F)nc2c1oc1ccccc12 [Example 1.18]	9	535	20	10900	287
C#Cc1cnc(O[C@H]2C[C@@H](C(=O)O)N(c3nc(C(F)(F)F)nc4c3oc3ccccc34)C2)c(C23CCOCC2C3)c1 (stereo partly drawn) [Example 4.01, (2S,4S)-4-[(5-ethynyl-3-{3-oxabicyclo[4.1.0]heptan-6-yl}pyridin-2-yl)oxy]-1-[4-(trifluoromethyl)-8-oxa-3,5-diazatricyclo[7.4.0.0^2,7]trideca-1(13),2,4,6,9,11-hexaen-6-yl]pyrrolidine-2-carboxylic acid]	8	784	>21	> 16600	1500
C#Cc1cnc(O[C@H]2C[C@@H](C(=O)O)N(c3nc(C(F)F)nc4c3oc3ccccc34)C2)c([C@]2(F)CCS(=O)(=O)C[C@H]2C)c1 [Example 2.14]	5	248	31	7760	124
COc1cncc(-c2cnc(O[C@H]3C[C@@H](C(=O)O)N(c4nc(C(F)F)nc5c4oc4ccccc45)C3)c([C@@]3(F)CCOC[C@@H]3C)c2)c1 [Example 6.02]	6	5	>3212	> 16600	45
C#Cc1cnc(O[C@H]2C[C@@H](C(=O)O)N(c3nc(C(F)F)nc4c3oc3ccccc34)C2)c([C@]2(F)CC(C)(C)S(=O)(=O)C[C@@H]2C)c1 [Example 1.10]	40	82	28	2240	70
C#Cc1cnc(O[C@H]2C[C@@H](C(=O)O)N(c3nc(C(F)F)nc4c3oc3ccccc34)C2)c([C@@]2(F)CCN(C(C)=O)C[C@@H]2C)c1 [Example 2.20]	4	17	583	9890	25
C[C@@H]1CS(=O)(=O)CC[C@@]1(F)c1cc(Cl)cnc1O[C@H]1C[C@@H](C(=O)O)N(c2nc(C(F)F)nc3c2oc2ccccc23)C1 [Example 1.12]	9	314	–	15300	–
CO[C@]1(c2cc(Cl)cnc2O[C@H]2C[C@@H](C(=O)O)N(c3nc(C(F)F)nc4c3oc3ccccc34)C2)CCS(=O)(=O)C[C@@H]1C [Example 2.06]	8	314	46	14600	287
C#Cc1cnc(O[C@H]2C[C@@H](C(=O)O)N(c3nc(C(F)(F)F)nc4c3oc3ccccc34)C2)c(C2(F)CCS(=O)(=O)CC2)c1 [Example 2.07]	2	688	>24	> 16600	97
C[C@H]1CS(=O)(=O)C(C)(C)C[C@]1(F)c1cc(Cl)cnc1O[C@H]1C[C@@H](C(=O)O)N(c2nc(C(F)F)nc3c2oc2ccccc23)C1 [Example 1.16]	5	8	1055	8240	6

Structure (SMILES)	IC50 [1] [nM]	IC50 [2] [nM]	Ratio THP(cGAMP) IC50/THP(vir) IC50 [2]	IC50 [3] [nM]	IC50 [4] [nM]
C[C@H]1COCC[C@]1(F)c1cc(Br)cnc1O[C@H]1C[C@@H](C(=O)O)N(c2nc(C(F)F)nc3c2oc2ccccc23)C1 [Example 2.16]	4	125	133	> 16600	325
Cc1nc(N2CCC[C@H]2C(=O)O)c2oc3ccccc3c2n1 [Example 15, reference compound]	–	> 17000	–	> 17000	–
C#Cc1cnc(O[C@H]2C[C@@H](C(=O)O)N(c3nc(C(F)(F)F)nc4c3oc3ccccc34)C2)c([C@@]2(F)CCS(=O)(=O)C[C@@H]2C)c1 [Example 2.12]	3	8	2619	21800	8
C#Cc1cnc(O[C@H]2C[C@@H](C(=O)O)N(c3nc(C(F)F)nc4c3oc3ccccc34)C2)c([C@]2(F)CCOC[C@@H]2C)c1 [Example 1.03]	2	283	>59	> 16600	137
C[C@H]1COCC[C@]1(F)c1cc(-c2cccc(N(C)C)c2)cnc1O[C@H]1C[C@@H](C(=O)O)N(c2nc(C(F)F)nc3c2oc2ccccc23)C1 [Example 6.04]	17	21	371	7680	75
C#Cc1cnc(O[C@H]2C[C@@H](C(=O)O)N(c3nc(C(F)F)nc4c3oc3ccccc34)C2)c([C@@]2(F)CC(C)(C)S(=O)(=O)C[C@@H]2C)c1 [Example 1.09]	4	< 5	>2935	15800	4
C[C@H]1CS(=O)(=O)C(C)(C)C[C@]1(F)c1cc(Cl)cnc1O[C@H]1C[C@@H](C(=O)O)N(c2nc(C(F)(F)F)nc3c2oc2ccccc23)C1 [Example 1.06]	5	12	479	5820	24
O=C(O)[C@@H]1C[C@H](Oc2ncc(Cl)cc2[C@]2(F)CCS(=O)(=O)C3(COC3)C2)CN1c1nc(C(F)F)nc2c1oc1ccccc12 [Example 1.20]	3	139	111	15500	55
CC1(C)C[C@](F)(c2cc(Cl)cnc2O[C@H]2C[C@@H](C(=O)O)N(c3nc(C(F)(F)F)nc4c3oc3ccccc34)C2)CCS1(=O)=O [Example 2.09]	11	168	33	5490	90
C[C@H]1COCC[C@]1(O)c1cc(Cl)cnc1O[C@H]1C[C@@H](C(=O)O)N(c2nc(C(F)F)nc3c2oc2ccccc23)C1 [Example 1.01, (2S,4S)-4-({5-Chloro-3-[(3S,4R)-4-hydroxy-3-methyloxan-4-yl]pyridin-2-yl}oxy)-1-[4-(difluoro-methyl)-8-oxa-3,5-diazatricyclo[7.4.0.0^2,7]trideca-1(13),2,4,6,9,11-hexaen-6-yl]pyrrolidine-2-carboxylic acid]	5	530	>31	> 16600	–
O=C(O)[C@@H]1C[C@H](Oc2ncc(Cl)cc2[C@@]2(F)CCN3C(=O)OC[C@H]3C2)CN1c1nc(C(F)F)nc2c1oc1ccccc12 [Example 2.13]	7	818	>20	> 16600	582
O=C(O)[C@@H]1C[C@H](Oc2ncc(Br)cc2C2(F)CCS(=O)(=O)CC2)CN1c1nc(C(F)F)nc2c1oc1ccccc12 [Example 2.04]	5	638	>26	> 16600	115
CC#Cc1cnc(O[C@H]2C[C@@H](C(=O)O)N(c3nc(C(F)F)nc4c3oc3ccccc34)C2)c([C@@]2(F)CCN(C(C)=O)C[C@@H]2C)c1 [Example 2.18]	13	59	215	12600	97
Cc1nc(N2C[C@@H](Nc3ccncc3)C[C@H]2C(=O)O)c2oc3ccccc3c2n1 [Example 38, reference compound]	–	> 17000	–	> 17000	> 9990
O=C(O)[C@@H]1C[C@H](Oc2ncc(Cl)cc2C2(F)CCS(=O)(=O)CC2)CN1c1nc(C(F)F)nc2c1oc1ccccc12 [Example 2.01, (2S,4S)-4-{[5-Chloro-3-(4-fluoro-1,1-dioxo-1-I-6-thian-4-yl)pyridin-2-yl]oxy}-1-[4-(difluoromethyl)-8-oxa-3,5-diazatricyclo[7.4.0.0^2,7]trideca-1(13),2,4,6,9,11-hexaen-6-yl]pyrrolidine-2-carboxylic acid]	3	179	>93	> 16600	–
